# Test results as given in ChEMBL document CHEMBL1133777, “De novo design of a novel oxazolidinone analogue as a potent and selective alpha1A adrenergic receptor antagonist with high oral bioavailability” (J Med Chem, 2000).
# Key:
# [1] = molecular target: T1, Alpha-1B adrenergic receptor (Homo sapiens, UniProt P35368); test: Binding affinity towards Alpha1B human adrenergic receptors, using [125I]HEAT as radioligand.
# T1 sequence (P35368 whole entry): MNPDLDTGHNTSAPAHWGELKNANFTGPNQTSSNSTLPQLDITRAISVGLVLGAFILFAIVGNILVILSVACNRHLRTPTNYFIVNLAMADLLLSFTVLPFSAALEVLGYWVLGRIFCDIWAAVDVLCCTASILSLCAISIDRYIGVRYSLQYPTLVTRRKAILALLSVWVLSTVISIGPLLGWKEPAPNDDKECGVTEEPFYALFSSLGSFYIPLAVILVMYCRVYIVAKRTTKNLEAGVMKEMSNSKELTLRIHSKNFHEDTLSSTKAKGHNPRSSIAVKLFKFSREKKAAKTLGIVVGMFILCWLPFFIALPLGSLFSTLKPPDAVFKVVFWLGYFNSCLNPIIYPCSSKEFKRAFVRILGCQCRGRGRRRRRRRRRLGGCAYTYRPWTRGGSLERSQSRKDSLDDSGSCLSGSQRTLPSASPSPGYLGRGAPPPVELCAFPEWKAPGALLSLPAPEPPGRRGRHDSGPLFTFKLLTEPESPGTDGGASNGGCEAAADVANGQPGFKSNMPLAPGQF
# Rattus norvegicus [2] = test: Compound was tested in situ for the inhibition of phenylephrine-induced contractions in anesthetized rat; type: functional
# [3] = Half-life in rat; type: ADME, organism-based; conditions: in vivo
# [4] = molecular target: T2, Alpha-1D adrenergic receptor (Homo sapiens, UniProt P25100); test: Binding affinity towards Alpha1D human adrenergic receptors, using [125I]HEAT as radioligand.
# T2 sequence (P25100 whole entry): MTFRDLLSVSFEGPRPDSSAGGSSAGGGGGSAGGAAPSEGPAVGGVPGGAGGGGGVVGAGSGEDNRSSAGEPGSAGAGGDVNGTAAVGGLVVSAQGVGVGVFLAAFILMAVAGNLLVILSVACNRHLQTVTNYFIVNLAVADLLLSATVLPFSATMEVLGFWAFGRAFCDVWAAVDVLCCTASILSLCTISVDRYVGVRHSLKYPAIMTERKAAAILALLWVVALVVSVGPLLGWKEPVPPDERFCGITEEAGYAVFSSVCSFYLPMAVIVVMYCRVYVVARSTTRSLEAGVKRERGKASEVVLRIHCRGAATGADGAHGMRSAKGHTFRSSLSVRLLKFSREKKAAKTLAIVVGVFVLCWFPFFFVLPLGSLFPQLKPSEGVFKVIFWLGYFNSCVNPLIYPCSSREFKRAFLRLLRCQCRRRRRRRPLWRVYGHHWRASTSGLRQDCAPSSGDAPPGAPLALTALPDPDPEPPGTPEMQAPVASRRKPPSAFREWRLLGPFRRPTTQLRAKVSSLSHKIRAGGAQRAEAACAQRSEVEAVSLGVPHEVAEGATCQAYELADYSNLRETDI
# [5] = Oral bioavailability in rat; type: ADME, organism-based; conditions: in vivo
# Canis familiaris [6] = test: In vivo for selective antagonistic activity against diastolic blood pressure in dog, using phenylephrine as agonist; type: functional, Canis lupus familiaris, Artery
# [7] = molecular target: Voltage-gated L-type calcium channel (Rattus norvegicus, UniProt P22002+Q02485+P27732); test: Inhibition of [3H]nitrendipine binding to rat L-type Ca-channel receptor; type: protein assay
# [8] = molecular target: T3, Alpha-2C adrenergic receptor (Homo sapiens, UniProt P18825); test: Binding affinity towards human alpha-2C-adrenergic receptor, using [3H]rauwolscine as radioligand.
# T3 sequence (P18825 whole entry): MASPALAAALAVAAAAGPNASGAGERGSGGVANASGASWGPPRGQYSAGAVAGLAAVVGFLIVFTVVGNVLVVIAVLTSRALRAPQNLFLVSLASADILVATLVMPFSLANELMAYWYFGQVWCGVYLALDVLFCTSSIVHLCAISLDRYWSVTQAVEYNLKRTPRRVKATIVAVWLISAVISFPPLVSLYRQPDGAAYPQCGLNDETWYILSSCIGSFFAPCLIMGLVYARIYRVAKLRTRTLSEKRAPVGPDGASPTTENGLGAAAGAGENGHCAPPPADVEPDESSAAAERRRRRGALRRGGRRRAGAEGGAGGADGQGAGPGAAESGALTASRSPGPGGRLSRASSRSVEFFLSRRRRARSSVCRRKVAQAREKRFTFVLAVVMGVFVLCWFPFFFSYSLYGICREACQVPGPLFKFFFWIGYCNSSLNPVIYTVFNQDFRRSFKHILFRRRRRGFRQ
# [9] = molecular target: T4, Alpha-1B adrenergic receptor (Rattus norvegicus, UniProt P15823); test: Binding affinity towards Alpha1B rat adrenergic receptors, using [125I]HEAT as radioligand.
# T4 sequence (P15823 whole entry): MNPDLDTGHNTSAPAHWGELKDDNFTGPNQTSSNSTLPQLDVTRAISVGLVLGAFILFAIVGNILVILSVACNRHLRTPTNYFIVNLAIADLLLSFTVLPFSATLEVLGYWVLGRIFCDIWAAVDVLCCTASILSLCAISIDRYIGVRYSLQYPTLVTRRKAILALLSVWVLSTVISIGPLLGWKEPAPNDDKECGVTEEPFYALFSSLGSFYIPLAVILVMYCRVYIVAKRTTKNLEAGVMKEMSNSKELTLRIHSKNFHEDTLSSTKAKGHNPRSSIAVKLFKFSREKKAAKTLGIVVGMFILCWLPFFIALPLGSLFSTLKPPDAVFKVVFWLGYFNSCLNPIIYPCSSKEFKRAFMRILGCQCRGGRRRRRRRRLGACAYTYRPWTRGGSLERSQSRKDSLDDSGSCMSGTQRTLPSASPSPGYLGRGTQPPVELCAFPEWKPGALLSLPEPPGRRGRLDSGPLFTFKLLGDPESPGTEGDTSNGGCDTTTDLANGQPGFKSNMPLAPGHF
# Rattus norvegicus [10] = species on record: Rattus norvegicus; test: In vitro inhibition of norepinephrine induced contractions in isolated rat aorta; type: functional
# [11] = molecular target: T5, Alpha-1D adrenergic receptor (Rattus norvegicus, UniProt P23944); test: Binding affinity towards Alpha1D rat adrenergic receptors, using [125I]HEAT as radioligand.
# T5 sequence (P23944 whole entry): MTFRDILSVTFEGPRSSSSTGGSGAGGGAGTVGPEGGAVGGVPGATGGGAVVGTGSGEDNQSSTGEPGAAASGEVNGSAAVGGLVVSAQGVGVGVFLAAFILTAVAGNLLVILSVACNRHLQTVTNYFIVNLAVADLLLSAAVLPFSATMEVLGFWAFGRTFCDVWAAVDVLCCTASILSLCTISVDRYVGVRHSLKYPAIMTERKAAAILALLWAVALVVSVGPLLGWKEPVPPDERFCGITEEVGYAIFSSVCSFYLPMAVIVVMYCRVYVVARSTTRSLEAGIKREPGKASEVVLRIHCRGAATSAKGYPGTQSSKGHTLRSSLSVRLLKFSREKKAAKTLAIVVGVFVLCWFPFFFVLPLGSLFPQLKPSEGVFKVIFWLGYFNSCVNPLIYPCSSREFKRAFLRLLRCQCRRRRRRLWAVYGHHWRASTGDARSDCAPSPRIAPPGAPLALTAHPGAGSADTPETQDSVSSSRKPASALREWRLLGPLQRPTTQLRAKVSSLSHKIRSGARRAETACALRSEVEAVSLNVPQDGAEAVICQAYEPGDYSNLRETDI
# [12] = molecular target: 5-hydroxytryptamine receptor 1B (Homo sapiens, UniProt P28222); test: Binding affinity towards 5-hydroxytryptamine 1B receptor using [3H]5-HT as radioligand.
# Canis familiaris [13] = test: In vivo for selective antagonistic activity against intra-urethral pressure in dog, using phenylephrine as agonist; type: functional, Canis lupus familiaris, Urethra
# [14] = molecular target: 5-hydroxytryptamine receptor 2A (Homo sapiens, UniProt P28223); test: Binding affinity towards 5-hydroxytryptamine 2A receptor using [3H]5-HT as radioligand.
# Rattus norvegicus [15] = species on record: Rattus norvegicus; test: In vitro inhibition of A-61603 induced contractions in rat prostate tissue; type: functional; conditions: Prostate gland
# Histamine H1 receptor = Histamine H1 receptor (Homo sapiens, UniProt P35367); test: Binding affinity towards Histamine H1 receptor in human brain tissue preparation, using [3H]pyrilamine as radioligand.
# [16] = molecular target: 5-hydroxytryptamine receptor 1D (Homo sapiens, UniProt P28221); test: Binding affinity towards 5-HT1D receptor, using [3H]5-HT as radioligand.
# Histamine H2 receptor = Histamine H2 receptor (Homo sapiens, UniProt P25021); test: Binding affinity towards human Histamine H2 receptor, using [3H]tiotidine as radioligand.
# [17] = molecular target: T6, 5-hydroxytryptamine receptor 1A (Mus musculus, UniProt Q64264); test: Binding affinity towards 5-hydroxytryptamine 1A receptor receptor, using [3H]5-HT as radioligand.
# T6 sequence (Q64264 whole entry): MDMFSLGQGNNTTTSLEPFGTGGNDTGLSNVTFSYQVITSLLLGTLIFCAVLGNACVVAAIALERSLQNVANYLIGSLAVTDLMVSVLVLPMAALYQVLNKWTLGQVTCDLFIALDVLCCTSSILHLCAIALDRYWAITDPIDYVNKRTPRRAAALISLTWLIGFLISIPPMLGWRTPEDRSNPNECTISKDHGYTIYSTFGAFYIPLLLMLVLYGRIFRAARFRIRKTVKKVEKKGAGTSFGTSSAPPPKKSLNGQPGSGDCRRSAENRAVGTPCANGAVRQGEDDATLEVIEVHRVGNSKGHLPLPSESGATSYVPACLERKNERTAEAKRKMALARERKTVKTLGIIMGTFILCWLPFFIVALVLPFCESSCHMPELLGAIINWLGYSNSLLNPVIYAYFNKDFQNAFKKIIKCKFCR
# [18] = Half-life in dog; type: ADME, organism-based, Canis lupus familiaris; conditions: in vivo
# Homo sapiens = species on record: Homo sapiens; test: In vitro inhibition of A-61603 induced contractions in human prostate tissue; type: functional; conditions: Prostate gland
# Canis familiaris [19] = species on record: Canis familiaris; test: In vitro inhibition of phenylephrine induced contractions in dog prostate tissue; type: functional; conditions: Canis lupus familiaris, Prostate gland
# [20] = molecular target: T7, Alpha-2A adrenergic receptor (Homo sapiens, UniProt P08913); test: Binding affinity towards human alpha-2A-adrenergic receptor, using [3H]rauwolscine as radioligand.
# T7 sequence (P08913 whole entry): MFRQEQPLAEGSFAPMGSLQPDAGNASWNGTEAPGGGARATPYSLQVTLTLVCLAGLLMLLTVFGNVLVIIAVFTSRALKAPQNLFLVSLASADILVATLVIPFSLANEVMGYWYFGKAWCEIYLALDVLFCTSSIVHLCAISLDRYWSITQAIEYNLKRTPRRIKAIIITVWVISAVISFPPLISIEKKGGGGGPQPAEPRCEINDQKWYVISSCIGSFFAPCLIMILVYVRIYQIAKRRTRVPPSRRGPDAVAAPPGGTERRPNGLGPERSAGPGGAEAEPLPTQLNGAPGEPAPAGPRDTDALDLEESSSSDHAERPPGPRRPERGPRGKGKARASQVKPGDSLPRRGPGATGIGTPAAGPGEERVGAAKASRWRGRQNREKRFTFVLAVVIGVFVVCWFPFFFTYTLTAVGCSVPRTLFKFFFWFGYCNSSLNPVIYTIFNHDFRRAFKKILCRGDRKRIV
# [21] = molecular target: T8, Alpha-2B adrenergic receptor (Homo sapiens, UniProt P18089); test: Binding affinity towards human alpha-2B-adrenergic receptor, using [3H]rauwolscine as radioligand.
# T8 sequence (P18089 whole entry): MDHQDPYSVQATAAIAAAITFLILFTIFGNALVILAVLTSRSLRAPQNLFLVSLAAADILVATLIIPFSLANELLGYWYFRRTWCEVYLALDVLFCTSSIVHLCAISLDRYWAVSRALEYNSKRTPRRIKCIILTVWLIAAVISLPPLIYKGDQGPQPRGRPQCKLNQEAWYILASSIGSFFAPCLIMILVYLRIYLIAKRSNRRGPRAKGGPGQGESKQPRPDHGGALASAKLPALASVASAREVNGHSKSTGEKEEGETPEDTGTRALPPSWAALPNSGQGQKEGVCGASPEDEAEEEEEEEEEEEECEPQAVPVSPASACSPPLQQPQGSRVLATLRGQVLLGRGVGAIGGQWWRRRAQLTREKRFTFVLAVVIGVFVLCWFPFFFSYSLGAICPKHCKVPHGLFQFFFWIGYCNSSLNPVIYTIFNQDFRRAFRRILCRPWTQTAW
# [22] = Oral bioavailability in dog; type: ADME, organism-based, Canis lupus familiaris; conditions: in vivo
# Sequence of 5-hydroxytryptamine receptor 2A (P28223 whole entry): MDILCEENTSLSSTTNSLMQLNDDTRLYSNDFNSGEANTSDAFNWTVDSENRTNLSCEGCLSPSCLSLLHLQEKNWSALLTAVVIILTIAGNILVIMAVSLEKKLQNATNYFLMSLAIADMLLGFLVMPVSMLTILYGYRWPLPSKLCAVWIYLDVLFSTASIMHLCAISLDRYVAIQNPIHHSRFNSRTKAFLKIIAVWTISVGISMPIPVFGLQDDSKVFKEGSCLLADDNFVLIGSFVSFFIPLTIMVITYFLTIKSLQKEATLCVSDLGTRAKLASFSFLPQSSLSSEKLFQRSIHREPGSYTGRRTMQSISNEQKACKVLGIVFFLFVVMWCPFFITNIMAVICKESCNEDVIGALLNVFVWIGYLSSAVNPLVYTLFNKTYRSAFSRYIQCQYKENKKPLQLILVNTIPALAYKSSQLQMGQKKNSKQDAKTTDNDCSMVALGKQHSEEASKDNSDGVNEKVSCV
# Sequence of Histamine H1 receptor (P35367 whole entry): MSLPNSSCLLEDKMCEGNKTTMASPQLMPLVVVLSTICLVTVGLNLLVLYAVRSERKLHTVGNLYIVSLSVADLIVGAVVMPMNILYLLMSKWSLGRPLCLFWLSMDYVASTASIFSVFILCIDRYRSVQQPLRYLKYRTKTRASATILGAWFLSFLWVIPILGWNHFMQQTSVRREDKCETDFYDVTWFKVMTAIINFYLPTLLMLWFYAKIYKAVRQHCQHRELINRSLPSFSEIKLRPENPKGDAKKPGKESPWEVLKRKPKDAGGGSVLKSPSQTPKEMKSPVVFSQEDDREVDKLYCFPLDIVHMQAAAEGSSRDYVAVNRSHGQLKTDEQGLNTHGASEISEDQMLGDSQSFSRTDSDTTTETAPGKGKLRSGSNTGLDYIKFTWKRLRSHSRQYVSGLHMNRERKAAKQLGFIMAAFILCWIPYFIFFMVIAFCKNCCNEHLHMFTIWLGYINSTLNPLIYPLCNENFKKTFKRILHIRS
# Sequence of Histamine H2 receptor (P25021 whole entry): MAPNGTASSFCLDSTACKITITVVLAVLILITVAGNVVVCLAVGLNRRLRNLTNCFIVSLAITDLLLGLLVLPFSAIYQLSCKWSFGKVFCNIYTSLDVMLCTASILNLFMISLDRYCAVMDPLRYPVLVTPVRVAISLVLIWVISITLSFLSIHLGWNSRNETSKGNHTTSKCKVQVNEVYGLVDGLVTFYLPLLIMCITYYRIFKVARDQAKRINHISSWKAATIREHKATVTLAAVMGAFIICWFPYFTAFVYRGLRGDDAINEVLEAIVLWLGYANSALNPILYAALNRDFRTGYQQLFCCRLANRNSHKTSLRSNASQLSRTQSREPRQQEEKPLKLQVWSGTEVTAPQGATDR
# Sequence of 5-hydroxytryptamine receptor 1B (P28222 whole entry): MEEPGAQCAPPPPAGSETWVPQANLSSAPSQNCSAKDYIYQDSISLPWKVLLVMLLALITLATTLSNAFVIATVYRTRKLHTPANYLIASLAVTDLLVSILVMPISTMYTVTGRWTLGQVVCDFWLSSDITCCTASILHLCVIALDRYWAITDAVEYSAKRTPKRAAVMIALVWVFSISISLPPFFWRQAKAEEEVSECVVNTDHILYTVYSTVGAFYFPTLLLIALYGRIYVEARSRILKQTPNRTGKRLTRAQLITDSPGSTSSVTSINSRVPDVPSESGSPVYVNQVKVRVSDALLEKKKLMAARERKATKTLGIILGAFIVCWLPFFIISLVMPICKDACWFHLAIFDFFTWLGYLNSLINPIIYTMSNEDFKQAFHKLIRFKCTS
# Sequence of 5-hydroxytryptamine receptor 1D (P28221 whole entry): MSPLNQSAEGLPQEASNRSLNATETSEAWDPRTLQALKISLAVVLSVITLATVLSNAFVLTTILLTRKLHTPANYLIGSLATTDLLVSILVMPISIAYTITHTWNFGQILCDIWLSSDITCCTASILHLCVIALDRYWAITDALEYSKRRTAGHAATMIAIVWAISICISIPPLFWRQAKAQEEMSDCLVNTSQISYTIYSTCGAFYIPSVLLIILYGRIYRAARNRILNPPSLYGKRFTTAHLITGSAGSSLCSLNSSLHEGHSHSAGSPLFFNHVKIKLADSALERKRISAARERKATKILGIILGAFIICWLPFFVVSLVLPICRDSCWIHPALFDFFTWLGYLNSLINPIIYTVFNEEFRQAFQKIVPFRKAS
smiles,measurement,setting,value
C[C@@H]1OC(=O)N(C(=O)NCCCN2CCC(c3ccc(F)cc3)CC2)[C@H]1c1ccc(F)c(F)c1,Ki,[1],119 nM
same,AD50,Rattus norvegicus [2],12 µg/kg
same,half-life,[3],360 min
same,Ki,[4],122 nM
same,bioavailability,[5],25%
same,DBP15,Canis familiaris [6],>300 µg/kg
same,Ki,[7],> 1000 nM
same,Ki,[8],> 45 nM
same,Ki,[9],79 nM
same,Kb,Rattus norvegicus [10],> 1000 nM
same,Ki,[11],62 nM
same,Ki,[12],> 500 nM
same,Kb,Canis familiaris [13],3 µg/kg
same,Ki,[14],> 500 nM
same,Kb,Rattus norvegicus [15],0.26 nM
same,Ki,Histamine H1 receptor,54 nM
same,Ki,[16],> 500 nM
same,Ki,Histamine H2 receptor,> 1000 nM
same,Ki,[17],> 500 nM
same,half-life,[18],> 720 min
same,Kb,Homo sapiens,0.1 nM
same,Kb,Canis familiaris [19],0.33 nM
same,Ki,[20],> 45 nM
same,Ki,[21],> 45 nM
same,bioavailability,[22],74%
COc1cc2nc(N3CCN(C(=O)C4CCCO4)CC3)nc(N)c2cc1OC (configuration not stated) [TERAZOSIN],AD50,Rattus norvegicus [2],52 µg/kg
same,DBP15,Canis familiaris [6],72 µg/kg
same,Kb,Rattus norvegicus [10],19 nM
same,Kb,Canis familiaris [13],16 µg/kg
same,Kb,Rattus norvegicus [15],25 nM
same,Kb,Homo sapiens,25 nM
same,Kb,Canis familiaris [19],130 nM
